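Method: 48-hour compound exposure of cells in 96-well plates, five concentrations, linear interpolation of endpoints. Abbreviation: GI50, concentration required for 50% inhibition of growth.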 The source made the active and inactive calls. Cut-off read from the data, not from the text of the source: active = GI50 up to about 1.1 µM and inactive = higher.

The text below walks through data of ChEMBL document CHEMBL1201862, “PubChem BioAssay data set” (2004).

Test systems include SK-MEL-5; NCI-H226; A549; Hs-578T; MOLT-4; MCF7; IGROV-1; KM12; OVCAR-3; COLO 205; T47D; UACC-62; LOX IMVI; MDA-MB-231; SK-OV-3; 786-0; M14; SNB-19; SN12C; SF-539.
Common to all, as to assay: NCI anticancer screen, dose series, 48 h

For the compound `COc1cccc(Cc2cc(=O)c3ccc(C)nc3[nH]2)c1`, the GI50 in the assay on SK-MEL-5 is > 100 µM (inactive); with NCI-H226, > 100 µM (inactive); in the assay with A549, > 100 µM (inactive); in the assay with Hs-578T, 60.1 µM (inactive); with MOLT-4 it was 41.3 µM (inactive); in the assay with MCF7 it was > 100 µM (inactive). In addition, the GI50 in the assay on IGROV-1, in the assay with KM12, in the assay with OVCAR-3, with COLO 205, with T47D and in the assay with UACC-62 was > 100 µM (inactive) throughout. Besides, the GI50 in the assay with LOX IMVI, in the assay on MDA-MB-231, in the assay with SK-OV-3, with 786-0, in the assay on M14 and with SNB-19 was > 100 µM (inactive) in each case. Further, the GI50 with SN12C was > 100 µM (inactive).

With `C=C1C(=O)OC2CCN3CC=C(COC(=O)C(C)(O)C4(CO4)C1C)C23` (centres undefined), the GI50 in the assay with SK-MEL-5, in the assay with NCI-H226, with A549, in the assay with Hs-578T, in the assay with MOLT-4 and in the assay on MCF7 was > 100 µM (inactive) each time. For the same compound, the GI50 in the assay on IGROV-1, with KM12, in the assay with COLO 205, in the assay on T47D, in the assay on UACC-62 and with LOX IMVI was > 100 µM (inactive) each time. Further, the GI50 in the assay on MDA-MB-231, with SK-OV-3, in the assay with 786-0, in the assay on M14, in the assay with SNB-19 and with SN12C was > 100 µM (inactive) in each case.

Take `COc1ccc(/C=C2\CN(C)C/C(=C\c3ccc(OC)cc3)C2=O)cc1`: the GI50 in the assay on SK-MEL-5 was 32.8 µM (inactive); in the assay on NCI-H226, > 100 µM (inactive); in the assay with A549 it was > 100 µM (inactive); with Hs-578T it was > 100 µM (inactive); in the assay on MOLT-4 it was > 100 µM (inactive); in the assay on IGROV-1, 52.2 µM (inactive). Besides, the GI50 in the assay with KM12, in the assay on OVCAR-3, in the assay on COLO 205, in the assay on T47D, in the assay on UACC-62 and with LOX IMVI was > 100 µM (inactive) each time. In addition, the GI50 is > 100 µM (inactive) with MDA-MB-231; > 100 µM (inactive) with SF-539; 28.6 µM (inactive) with 786-0; > 100 µM (inactive) in the assay with M14; > 100 µM (inactive) in the assay with SNB-19; > 100 µM (inactive) with SN12C.

Regarding `COc1cc(C(=O)O[C@H]2CCC3CCC2N3C)cc(OC)c1OC` (some centres undefined), the GI50 with SK-MEL-5, with NCI-H226, in the assay on A549, with Hs-578T, with MOLT-4 and with MCF7 was > 100 µM (inactive) in each case. For the same compound, the GI50 in the assay on KM12, in the assay on COLO 205, in the assay with LOX IMVI, in the assay on MDA-MB-231, in the assay with SF-539 and in the assay with SK-OV-3 was > 100 µM (inactive) each time. Further, the GI50 in the assay with 786-0, in the assay on M14, in the assay with SNB-19 and in the assay on SN12C was > 100 µM (inactive) throughout.

For the compound `O=C(O)c1c(-c2ccccc2)c(=O)[nH]c2ccccc12`, the GI50 in the assay on SK-MEL-5, in the assay on NCI-H226, with A549, in the assay on Hs-578T, in the assay with MOLT-4 and in the assay on MCF7 was > 100 µM (inactive) throughout. Also, the GI50 with IGROV-1, with KM12, in the assay with OVCAR-3, with COLO 205, with T47D and in the assay on UACC-62 was > 100 µM (inactive) throughout. Further, the GI50 in the assay with LOX IMVI, with MDA-MB-231, in the assay with SK-OV-3, with 786-0, in the assay with M14 and with SNB-19 was > 100 µM (inactive) each time. Further, the GI50 in the assay with SN12C was > 100 µM (inactive).

Turning to `CO[C@H]1O[C@@H]2CO[C@@H](c3ccccc3)O[C@H]2[C@@H]2CC=CCC[C@]12O`, the GI50 in the assay with SK-MEL-5 is 67.1 µM (inactive); in the assay with NCI-H226 it was > 100 µM (inactive); in the assay on A549, 59.8 µM (inactive); in the assay with Hs-578T, 0.052 µM (active); with MOLT-4 it was 25.1 µM (inactive); in the assay on MCF7, 42.6 µM (inactive). Further, the GI50 in the assay with IGROV-1 is 59.6 µM (inactive); in the assay with KM12 it was 65.3 µM (inactive); in the assay on OVCAR-3, 69.7 µM (inactive); in the assay with COLO 205 it was 48.5 µM (inactive); in the assay on T47D it was 94 µM (inactive); with UACC-62, 63.4 µM (inactive). The GI50 with LOX IMVI is 74.3 µM (inactive); in the assay on MDA-MB-231, > 100 µM (inactive); in the assay on SK-OV-3, > 100 µM (inactive); in the assay on 786-0, 61.2 µM (inactive); in the assay with M14, 72.6 µM (inactive); with SNB-19, > 100 µM (inactive). Further, the GI50 in the assay with SN12C is 61.8 µM (inactive).

For `COc1ccc(N2C(=O)C3c4[nH]c5ccc(C)cc5c4C4CCC(C(C)C)CC4C3C2=O)cc1` (centres undefined), the GI50 in the assay on SK-MEL-5 was > 100 µM (inactive); with NCI-H226, > 100 µM (inactive); in the assay on A549, > 100 µM (inactive); with Hs-578T it was 57.8 µM (inactive); in the assay on MOLT-4, > 100 µM (inactive); with MCF7, > 100 µM (inactive). In addition, the GI50 in the assay with IGROV-1, in the assay with KM12, with OVCAR-3, in the assay with COLO 205, with T47D and in the assay on UACC-62 was > 100 µM (inactive) in each case. Besides, the GI50 with LOX IMVI, in the assay on MDA-MB-231, in the assay with SK-OV-3, with 786-0, in the assay on M14 and with SNB-19 was > 100 µM (inactive) throughout. Further, the GI50 in the assay with SN12C was > 100 µM (inactive).

Consider `Cc1ccc2c(=O)c(-c3n[nH]c(=S)s3)c[nH]c2n1`, for which the GI50 in the assay on SK-MEL-5, with NCI-H226, with A549, in the assay on Hs-578T, in the assay on MOLT-4 and in the assay on MCF7 was > 100 µM (inactive) each time. The GI50 with IGROV-1, in the assay on KM12, in the assay with OVCAR-3, in the assay on COLO 205, in the assay with T47D and in the assay on UACC-62 was > 100 µM (inactive) each time. In addition, the GI50 in the assay with LOX IMVI, in the assay on MDA-MB-231, with 786-0, in the assay on M14, in the assay on SNB-19 and in the assay with SN12C was > 100 µM (inactive) each time.

Turning to `O=C(O)[C@H]1[C@@H](C2CCCCC2)O[C@@H](C2CCCCC2)O[C@H]1C(F)(F)F`, the GI50 is 20.7 µM (inactive) in the assay on SK-MEL-5; 21.1 µM (inactive) with NCI-H226; 20.9 µM (inactive) with A549; 23.1 µM (inactive) in the assay on Hs-578T; 21.6 µM (inactive) in the assay on MOLT-4; 16.6 µM (inactive) in the assay with IGROV-1. The GI50 in the assay with KM12 is 22.2 µM (inactive); in the assay on OVCAR-3, 20.4 µM (inactive); with COLO 205 it was 20.4 µM (inactive); with T47D, 30.5 µM (inactive); in the assay on UACC-62 it was 18.5 µM (inactive); in the assay on LOX IMVI it was 19.9 µM (inactive). Further, the GI50 in the assay with MDA-MB-231 was 18.2 µM (inactive); in the assay on SF-539, 35.7 µM (inactive); in the assay with SK-OV-3, 38.9 µM (inactive); with 786-0, 17.8 µM (inactive); in the assay on M14, 17.9 µM (inactive); with SNB-19 it was 27.5 µM (inactive). Moreover, the GI50 in the assay on SN12C was 17.1 µM (inactive).

`O=C(NCP(=O)(Oc1ccccc1)Oc1ccccc1)OCc1ccccc1`: the GI50 in the assay on SK-MEL-5 is > 100 µM (inactive); with NCI-H226, > 100 µM (inactive); with A549, 70.8 µM (inactive); in the assay with Hs-578T it was 40.7 µM (inactive); with MOLT-4, > 100 µM (inactive); in the assay with MCF7, > 100 µM (inactive). The GI50 is > 100 µM (inactive) in the assay with IGROV-1; > 100 µM (inactive) in the assay with KM12; 55.1 µM (inactive) in the assay with OVCAR-3; > 100 µM (inactive) in the assay on COLO 205; > 100 µM (inactive) with T47D; 62.8 µM (inactive) in the assay with UACC-62. The GI50 was > 100 µM (inactive) in the assay with LOX IMVI; 33.1 µM (inactive) in the assay on SK-OV-3; 53.2 µM (inactive) in the assay on 786-0; > 100 µM (inactive) in the assay with M14; > 100 µM (inactive) in the assay with SNB-19; > 100 µM (inactive) with SN12C.

For the compound `NC(=O)NC(CC(=O)O)C(=O)O` (centres undefined), the GI50 in the assay with SK-MEL-5, with NCI-H226, in the assay on A549, in the assay on Hs-578T, in the assay with MOLT-4 and with IGROV-1 was > 100 µM (inactive) throughout. Moreover, the GI50 with KM12, with OVCAR-3, with T47D, in the assay with UACC-62, in the assay with LOX IMVI and in the assay on MDA-MB-231 was > 100 µM (inactive) in each case. Further, the GI50 in the assay with 786-0, with M14, in the assay with SNB-19 and in the assay with SN12C was > 100 µM (inactive) in each case.
